# Laboratory results reported in patent US20250222114A1, “GLYCOCONJUGATED DRUG FOR THE TREATMENT OF HEPATOCELLULAR CARCINOMA” (priority 2021, published 2025).
# Several values for one entry are separate records, joined by “and”; a condition that tells them apart may be missing. Identical values can stand only once.
# Legend:
# [1] = system: HA in CFSC-2G cells; test: HA content by flow cytometry, CFSC-2G; assay type: cell-based, rat; details: 0.25-1 mM, 48 h
# Experimental: The levels of HA were quantified in the activated stellate cells CFSC-2G. For this goal, HA was detected by incubation with HA-fluorescein iso-thiocyanate (FITC) (20 μg/100 μL, Calbiochem SA, Bs. As., Argentina). Cells were treated with 4MU or 4MUR 0.25-1 mM and fixed were analyzed by flow cytometry with a FACS Accuri, BD (Becton Dickinson Immunocytometry Systems), using the BD Accuri 6C™ software.
# [2] = system: IHH (human hepatocytes cell line); test: Cell viability, IHH; assay type: cell-based; details: IHH cells
# Experimental: (§1) In order to evaluate the therapeutic efficacy and potential cytotoxicity of the glycoconjugated drug of the invention for the treatment of HCC, cell viability assays were carried out in different cell lines. Chemiograms were performed using increasing doses of the compound 4-MU as well as the glycosylated compound 4MUR (0-2000 μM). Cell viability was measured by using the CellTiter kit (Promega Corporation). Proliferation was measured through a tritiated thymidine incorporation assay, by incubating the cells for 48 h with either one of the compounds (4MU/4MUR) or culture medium (RPMI) in the presence of 3H-thymidine (Migliore-LaClaustra).
# [3] = system: Huh7 (human hepatic cell line); test: Cell viability (CellTiter), Huh7; assay type: cell-based; details: for IC50: Huh7 cells
# Experimental: as §1, with “lines. To this end, an in vitro model was designed. The cells used for in vitro assay were a murine hepatic cell line (Hepa1-6) and a human hepatic cell line (Huh7).” for “lines.”
# [4] = system: CFSC-2G (Rat hepatic stellate cell line); test: Cell viability, CFSC-2G; assay type: cell-based; details: CFSC-2G cells
# Experimental: as §1
# [5] = system: Hepa129 cells; test: Proliferation by 3H-thymidine incorporation, Hepa129; assay type: cell-based, murine; details: for dose at which proliferation was significantly decreased: Hepa129, 48 h, 3H-thymidine
# Experimental: Chemiograms were performed using increasing doses of the compound 4-MU as well as the glycosylated compound 4MUR (0-2000 μM). Cell viability was measured by using the CellTiter kit (Promega Corporation). Proliferation was measured through a tritiated thymidine incorporation assay, by incubating the cells for 48 h with either one of the compounds (4MU/4MUR) or culture medium (RPMI) in the presence of 3H-thymidine (Migliore-LaClaustra). After incubation, cells were harvested and centrifuged to remove ^3H-thymidine from the supernatant. The cell pellet was lysed with sterile distilled water (200 μl) and said volume was added to paper filters for retaining cell DNA with incorporated ^3H-thymidine. Each paper filter was impregnated in a tube containing scintillation liquid and each sample was run and read using a liquid scintillator counter (Beckman) detecting […] per minute emitted by tritium (^3H). Results are expressed as counts per minute (cpm) for each sample. Proliferation capacity of murine Hepa129 cells treated with 4MU and 4MUR was evaluated, as measured by ^3H-thymidine incorporation.
# [6] = system: orthotopic Hepa129 tumors; test: Orthotopic hepatocellular carcinoma model associated with advanced fibrosis induced by TAA; assay type: in vivo, C3H/He mice; details: oral administration 200 mg/kg/day
# [7] = system: HAS2; test: HAS2 mRNA expression (RT-qPCR), Huh7; assay type: cell-based, human; details: Huh7 cells
# Experimental: (§2) Since HAS mRNA levels often correspond to the activity of hyaluronan synthesis, the effect of 4MUR on HAS2 and HAS3 expression was assessed. To this end, cells with a concentration of 100,000 cells/ml were cultured on 6-well plates and treated with 4MUR (500 μM) for 24 h. Total RNA was extracted using the TriReagent (Sigma Aldrich) according to the manufacture's protocol. RNA was quantified at 260 nm in a DU®730 spectrophotometer (Beckman Coulter, Fullerton, CA, USA). The RNA purity was evaluated according to MIQE guidelines by measuring the ratio A260/A280. […] RT-qPCR for HAS2, HAS3 genes was performed using iQ SYBR Green Supermix protocol (Bio-Rad Laboratories, Milan, Italy). Each PCR amplification was carried out following manufactures instructions (iQ SYBR Green Supermix-Bio-Rad) in a Bio-Rad iQ5 real-time PCR detection system (iCycler IQ5 software, version 3.1; Bio-Rad) Expression was normalized to actin with two reference genes.
# [8] = Toxicity study in mice; assay type: in vivo, C3Hj mice; details: for animal body weight: more than 20 days
# Experimental: In order to evaluate the toxicity of the compound of the invention, an in vivo assay with mice was carried out. Animals treated with 4MUR were kept healthy during all the experimental protocol.
# Briefly, C3Hj mice untreated (n=4) or treated with 4MU (n=4) or 4MUR (n=5) were used to assess its toxicology profile. Mice weight was supervised for more than 20 days. At the end of the experiments, healthy mice or mice receiving 4MU/4MUR were sacrificed to collect liver, spleen, heart, lung, and kidney samples. Tissue sections from liver, spleen, heart, and lungs were paraffin-embedded and H&E staining procedure was performed using standard protocols.
# [9] = system: HA in Hepa129 cells; test: HA content by flow cytometry, Hepa129; assay type: cell-based, murine; details: 48 h
# [10] = system: α-SMA, TGF-β, COL1A2, TIMP-1, MMP-9 in CFSC-2G cells; test: Fibrotic-related gene expression by qPCR, CFSC-2G; assay type: cell-based, rat; details: 48 h
# Experimental: The effect of 4MUR on liver fibrogenesis was assessed by the expression of the fibrotic-related genes including α-SMA, TGF-β, profibrogenic (COL1A2 and TIMP-1), and the antifibrogenic gene matrix metalloproteinase (MMP-9) on CFSC-2G cells by qPCR.
# [11] = system: Hepa129 cells; test: Apoptosis by acridine orange/ethidium bromide staining, Hepa129; assay type: cell-based, murine; details: 48h; for induction of apoptosis: Hepa129, 0.1 mM; for cells showing death by apoptosis: Hepa129, 1 mM
# Experimental: On the other hand, it was examined if growth inhibition by 4MUR was due to induction of apoptosis. To this end, cells were stained with an orange solution of acridine-ethidium bromide (Acridine Orange (NA)/Ethidium Bromide (BrEt) staining) and were then visualized by fluorescence microscopy to analyze their morphological characteristics. Briefly, after 48h of treatment, the cells were incubated with a mixture of NA/BrEt (1 ug/ml) and were then observed under a fluorescence microscope (Nikon). Viable cells are permeable to NA and are stained green. Cells with an altered plasma membrane allow BrEt to enter, which displaces NA, staining the cell orange. The percentage of viable or apoptotic cells was counted for each treatment.
# [12] = system: HAS2; test: HAS2 mRNA expression (RT-qPCR), CFSC-2G; assay type: cell-based, rat; details: CFSC-2G cells
# Experimental: as §2
# [13] = system: orthotopic Hepa129 tumors; test: Orthotopic hepatocellular carcinoma model associated with advanced fibrosis induced by TAA; assay type: in vivo, C3H/He mice; details: for tumor volume: 20 mg/Kg i.p. 3 times a week, day 21 post Hepa129 inoculation; for animals in which tumors were not detected macroscopically: day 21 post-Hepa129; for animal survival: Day 20, FIG. 12C; for fibrosis degree measured by collagen deposits (Sirius red): liver sections
# Experimental: To assess the in vivo antitumoral efficacy of 4MUR, an orthotopic tumor model associated with advanced fibrosis induced by TAA was established
# C3H/He mice were intraperitoneally (i.p.) treated with 20 mg/kg thioacetamide (TAA) 3 times a week, for 4 weeks, in order to induce liver fibrosis. On day 28, mice were anesthetized and underwent surgery and orthotopic tumors were established by subcapsular intrahepatic inoculation of 1.25×10^5 Hepa129 cells into the left lobe of the liver (Day 0).
# Between day 5 and day 7 post-administration of the cells, animals were again subjected to surgery for observing tumor development. Mice were divided into 3 groups (n=5) and each group received: (1) Saline solution (control); (2) 4MU dissolved in water, at a dose of 20 mg/Kg; (3) 4MUR dissolved in water at a dose of 20 mg/Kg. Intraperitoneal administration for different groups began on day 5 and was performed 3 times a week, until the end of the experiment on day 21 post Hepa129 inoculation. On day 21, animals were sacrificed, mice weight was recorded and ascites grade (mild, moderated, severe, and hemorrhagic), as well as tumor volume (mm^3), was calculated by the formula π/6×larger diameter×(smaller diameter)^2, by caliber measurement.
# The 4MUR treatment on liver fibrogenesis was evaluated in the animal model. […] To assess the extent of liver fibrosis, formalin-fixed liver samples were embedded in paraffin and 5 μm sections were stained by Sirius Red for detection of fibrillar collagen. Quantitative analysis of Sirius red stained area was performed by computerized morphometric analysis. About 50 light microscope images (100× magnification) per specimen were captured and analyzed using the color threshold detection system developed in ImageJ software (NIH, USA). The results were expressed as percentage of positive area. Collagen deposition was quantified by morphometric analysis and densitometry.
# To further understand the 4MUR effect on HCC, HA expression was evaluated in liver tissue sections of mice from the different groups by staining with an HA-binding protein (HA-BP). Negative controls were stained with bHA-BP and pretreated with 100 U/ml Streptomyces hyaluronidase (#385931, Calbiochem) at 37° C. for 30 min. Peroxidase complex (Sigma) 1:10 in PBS was used for developing. The signal was detected by 0.1% diaminobenzidine (Sigma-Aldrich, Buenos Aires, Argentina), 4% glucose, 0.08% ClNH4, 5% nickel ammonium sulfate in 0.2 M AcNa and 0.05% H2O2.
# [14] = system: HAS3; test: HAS3 mRNA expression (RT-qPCR), CFSC-2G; assay type: cell-based, rat; details: CFSC-2G cells
# Experimental: as §2
# [15] = system: Hepa1-6 (murine hepatic cell line); test: Cell viability, Hepa1-6; assay type: cell-based; details: Hepa 1.6 cells, compared with 4-MU
# Experimental: In order to evaluate the therapeutic efficacy and potential cytotoxicity of the glycoconjugated drug of the invention for the treatment of HCC, cell viability assays were carried out in different cell lines.
# To this end, an in vitro model was designed. The cells used for in vitro assay were a murine hepatic cell line (Hepa1-6) and a human hepatic cell line (Huh7).
# as §1, with “Chemiograms” for “In order to evaluate the therapeutic efficacy and potential cytotoxicity of the glycoconjugated drug of the invention for the treatment of HCC, cell viability assays were carried out in different cell lines. Chemiograms”
# [16] = system: HAS3; test: HAS3 mRNA expression (RT-qPCR), Huh7; assay type: cell-based, human; details: Huh7 cells
# Experimental: as §2
smiles,measurement,setting,value
"Cc1cc(=O)oc2cc(O[C@@H]3O[C@H](CO[C@@H]4O[C@@H](C)[C@H](O)[C@@H](O)[C@H]4O)[C@@H](O)[C@H](O)[C@H]3O)ccc12 [4MUR, 4-methylumbelliferyl-rutinoside]",HA level,[1],significantly decreased
same,IC50,[2],> 2000 µM
same,increase of IC50 values of 4MUR compared to 4MU,[2],6.2 fold
same,increase of 4MU antitumoral effect by glycosylation,"[3]; Huh7, 4MUR compared to 4MU",2.2
same,IC50,[3],488 µM
same,IC50,[4],> 2000 µM
same,increase of IC50 values of 4MUR compared to 4MU,[4],25.8 fold
same,lower dose for significant decrease of proliferation vs 4MU,[5]; Hepa129,10 times
same,proliferation,"[5]; Hepa129, 1 mM",did not proliferate
same,dose at which proliferation was significantly decreased,[5],0.1 mM
same,efficacy against hepatocellular carcinoma,[6],efficient
same,expression of HAS2,[7],significantly reduced
same,health of animals during the experimental protocol,[8],kept healthy
same,"histology (H&E) of liver, kidney, lungs, spleen, heart",[8],no induced tissue damage
same,animal body weight,[8],no significant changes
same,HA contents,[9],significantly decreased
same,COL1A2 expression,[10],strongly downregulated
same,MMP-9 expression,[10],not affected
same,TGF-β expression,[10],strongly downregulated
same,TIMP-1 expression,[10],strongly downregulated
same,α-SMA expression,[10],strongly downregulated
same,induction of apoptosis,[11],significantly induced apoptosis
same,cells showing death by apoptosis,[11],100%
same,HAS2 expression,[12],did not affect
same,HA expression in liver tissue (HA-BP staining),[13]; 20 mg/Kg i.p.,remarkable reduction
same,tumor volume,[13],113.5±77.8 mm^3
same,animals in which tumors were not detected macroscopically,[13]; 20 mg/Kg i.p.,60%
same,animal survival,[13],100%
same,amount of ascitic fluid,[13]; compared with untreated mice and 4MU,significantly reduced
same,efficacy against hepatocellular carcinoma,[13]; i.p. 20 mg/kg/day,efficient
same,fibrosis degree measured by collagen deposits (Sirius red),[13]; 20 mg/Kg i.p.,0.21±0.02
same,HAS3 expression down regulation,[14],4.5 fold
same,in vitro antitumoral effect,[15],significantly higher than 4-MU
same,expression of HAS3,[16],significantly reduced
"Cc1cc(=O)oc2cc(O)ccc12 [4MU, 4-Methylumbelliferone, reference compound]",HA level,[1],significantly decreased
same,IC50,"[2]; Homo sapiens, Hepatocyte",486 µM
same,IC50,"[3]; Homo sapiens, Huh-7",> 2000 µM
same,IC50,[4]; Rattus norvegicus,1160 µM
same,lowered proliferation,"[5]; Hepa129, 1 mM",50%
same,dose at which proliferation was significantly decreased,[5],1 mM
same,expression of HAS2,[7],did not affect
same,"histology (H&E) of liver, kidney, lungs, spleen, heart",[8],no induced tissue damage
same,animal body weight,[8],no significant changes
same,HA contents,[9],significantly decreased
same,induction of apoptosis,[11],resistant
same,cells showing death by apoptosis,[11],60%
same,HAS2 upregulation,[12],around 5 fold
same,tumor volume,[13],243.8±94.0 mm^3
same,animals in which tumors were not detected macroscopically,[13]; 20 mg/Kg i.p.,20%
same,animal survival,[13],66% and 67%
same,fibrosis degree measured by collagen deposits (Sirius red),[13]; 20 mg/Kg i.p.,0.53±0.04
same,HAS3 expression upregulation,[14],4.2 fold
same,HAS3 up-regulation,[16],around 3.5 fold
